Test systems include A549; COLO 205; HL-60; HOP-62; KM12; Malme-3M; OVCAR-3; OVCAR-8; RPMI-8226; SF-268; SF-539; SNB-19; SNB-75; SR; SW-620; TK-10; UACC-257; A498.
Common to all, as to assay: inhibition of tumour cell growth, NCI panel, 48 h

Structures are written as SMILES.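 Cells were grown in 96-well plates and exposed to each compound for 48 hours at five concentrations; endpoints were interpolated linearly between bracketing concentrations, or set to the highest concentration if not reached. GI50 is the concentration that inhibits growth by half.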 The source made the active and inactive calls. Rule as the data show it: active = GI50 up to about 1.1 µM and inactive = higher. Where only a bound is given, the exact number is not on record here.

With `Nc1ccc(C(=O)NN2C(=O)C(Cl)C2c2cc(Br)cc(Br)c2O)cc1` (stereo not given), the GI50 in the assay with A549 is 14.3 µM (inactive); in the assay on COLO 205 it was 48.1 µM (inactive); in the assay on HL-60, 1.31 µM (inactive); in the assay on HOP-62, 12.1 µM (inactive); in the assay with KM12 it was 22.8 µM (inactive); with Malme-3M, 17.3 µM (inactive). The GI50 in the assay on OVCAR-3 is 2.43 µM (inactive); with OVCAR-8, 14.7 µM (inactive); with RPMI-8226 it was > 100 µM (inactive); with SF-268, 3.98 µM (inactive); with SF-539 it was 12.8 µM (inactive); in the assay with SNB-19 it was 34.1 µM (inactive). Besides, the GI50 in the assay on SNB-75 was 18 µM (inactive); in the assay with SR, 24.3 µM (inactive); with SW-620 it was 16.7 µM (inactive); with TK-10 it was 32.2 µM (inactive); in the assay with UACC-257 it was 7.67 µM (inactive).
Regarding `CC1=C(C(=O)Nc2ccccc2C)C(c2ccc(N(C)C)cc2)C(C(=O)Nc2ccccc2C)=C(C)N1`, the GI50 is > 100 µM (inactive) in the assay with A498; 94 µM (inactive) with A549; > 100 µM (inactive) in the assay with COLO 205; 19 µM (inactive) in the assay with HL-60; 28.6 µM (inactive) in the assay with HOP-62; 48.4 µM (inactive) with KM12. The GI50 in the assay with Malme-3M is 82.6 µM (inactive); with OVCAR-3 it was > 100 µM (inactive); in the assay with OVCAR-8, 88.5 µM (inactive); in the assay with RPMI-8226, 17.1 µM (inactive); in the assay with SF-268 it was 70.5 µM (inactive); in the assay on SF-539, > 100 µM (inactive). The GI50 with SNB-19 was > 100 µM (inactive); in the assay on SW-620, 51.8 µM (inactive); in the assay on TK-10, > 100 µM (inactive); with UACC-257 it was 71.6 µM (inactive).
Regarding `CN(C)c1ccc2c(c1)C(=O)N(OS(=O)(=O)c1ccc([N+](=O)[O-])cc1)C2=O`, the GI50 is 59.7 µM (inactive) in the assay on A498; 39.2 µM (inactive) in the assay on A549; 24.3 µM (inactive) in the assay on COLO 205; 28.6 µM (inactive) in the assay with HL-60; 37.1 µM (inactive) in the assay on HOP-62; 25.1 µM (inactive) in the assay on KM12. The GI50 is 31.2 µM (inactive) in the assay with Malme-3M; > 10 µM (inactive) with OVCAR-3; 25.5 µM (inactive) with OVCAR-8; 27.2 µM (inactive) in the assay on SF-268; 17.6 µM (inactive) with SF-539; 41.7 µM (inactive) in the assay on SNB-19. Besides, the GI50 in the assay on SNB-75 is 31.6 µM (inactive); with SR, 22.4 µM (inactive); in the assay on SW-620, 20.4 µM (inactive); with TK-10, 59 µM (inactive); in the assay on UACC-257 it was 25.6 µM (inactive).
Take `Cn1c(NC(=O)NC23CC4CC(CC(C4)C2)C3)nc2ccccc21`: the GI50 with A549 is > 100 µM (inactive); with COLO 205 it was > 100 µM (inactive); in the assay on HL-60 it was > 100 µM (inactive); in the assay on HOP-62, 30.5 µM (inactive); in the assay on KM12, > 100 µM (inactive); in the assay on Malme-3M, 17.5 µM (inactive). Moreover, the GI50 in the assay with OVCAR-3 is > 100 µM (inactive); in the assay on OVCAR-8 it was > 100 µM (inactive); in the assay with RPMI-8226, > 100 µM (inactive); in the assay on SF-268, 28.5 µM (inactive); in the assay on SF-539, 81.1 µM (inactive); with SNB-19, 95.1 µM (inactive). Further, the GI50 was 3.94 µM (inactive) in the assay on SNB-75; > 100 µM (inactive) in the assay with SR; > 100 µM (inactive) in the assay with SW-620; 39.5 µM (inactive) in the assay with TK-10; 94.2 µM (inactive) in the assay on UACC-257.
Regarding `COc1cc(Nc2cnc3cc(N)ccc3n2)cc(OC)c1OC`, the GI50 in the assay with A498 was > 100 µM (inactive); in the assay on A549 it was > 100 µM (inactive); in the assay on COLO 205 it was > 100 µM (inactive); in the assay on HL-60, 40.1 µM (inactive); with HOP-62 it was 97.7 µM (inactive); in the assay on KM12, > 100 µM (inactive). In addition, the GI50 with Malme-3M was > 100 µM (inactive); with OVCAR-3 it was 53.8 µM (inactive); in the assay with OVCAR-8, 78.2 µM (inactive); in the assay on SF-268, > 100 µM (inactive); in the assay with SF-539, > 100 µM (inactive); in the assay with SNB-19, > 100 µM (inactive). Moreover, the GI50 in the assay with SNB-75 was > 100 µM (inactive); in the assay with SR it was 44.1 µM (inactive); with SW-620 it was > 100 µM (inactive); in the assay on TK-10 it was > 100 µM (inactive); with UACC-257, > 100 µM (inactive).
As for `O=S(=O)(SCCCCSS(=O)(=O)c1ccc(Cl)cc1)c1ccc(Cl)cc1`, the GI50 in the assay with A498 is 16.6 µM (inactive); with A549, 13.5 µM (inactive); in the assay on COLO 205, 14.9 µM (inactive); in the assay on HL-60, 3.24 µM (inactive); in the assay on HOP-62, 20.1 µM (inactive); in the assay on KM12, 9.68 µM (inactive). In addition, the GI50 was 15.4 µM (inactive) in the assay with Malme-3M; 14.7 µM (inactive) in the assay on OVCAR-3; 12.2 µM (inactive) in the assay on OVCAR-8; 4.39 µM (inactive) in the assay on RPMI-8226; 10.5 µM (inactive) in the assay on SF-268; 12.4 µM (inactive) in the assay on SF-539. Also, the GI50 with SNB-19 is 10.2 µM (inactive); in the assay on SNB-75, 11.4 µM (inactive); in the assay on SW-620 it was 9.46 µM (inactive); in the assay with TK-10 it was 21.3 µM (inactive); with UACC-257, 16.6 µM (inactive).
For the molecule `Nc1nc(CCl)nc(Nc2ccccc2)n1`, the GI50 with A549 is 26.2 µM (inactive); with COLO 205, 21.8 µM (inactive); in the assay with HL-60, 3.27 µM (inactive); with HOP-62, 16.3 µM (inactive); in the assay on KM12, 15.1 µM (inactive); in the assay with Malme-3M, 17.4 µM (inactive). Also, the GI50 was 17.2 µM (inactive) in the assay on OVCAR-3; 30.2 µM (inactive) with OVCAR-8; 4.1 µM (inactive) in the assay with RPMI-8226; 19.2 µM (inactive) with SF-268; 25 µM (inactive) in the assay on SF-539; 46.6 µM (inactive) with SNB-19. In addition, the GI50 was 6.24 µM (inactive) with SNB-75; 12.9 µM (inactive) with SR; 21.3 µM (inactive) with SW-620; 24 µM (inactive) with TK-10; 15.9 µM (inactive) in the assay on UACC-257.
For `NC1=C(NC(=O)Cc2ccccc2F)C(=O)c2ccccc2C1=O`, the GI50 in the assay with A549 was 59.3 µM (inactive); in the assay with COLO 205, > 100 µM (inactive); with HL-60, 88.3 µM (inactive); in the assay on HOP-62, 25.5 µM (inactive); in the assay with KM12, > 100 µM (inactive); in the assay on Malme-3M, 13.6 µM (inactive). Also, the GI50 was 8.26 µM (inactive) in the assay with OVCAR-3; 39.2 µM (inactive) in the assay with OVCAR-8; > 100 µM (inactive) in the assay with RPMI-8226; 34.6 µM (inactive) with SF-268; 26.9 µM (inactive) with SF-539; 35.8 µM (inactive) in the assay on SNB-19. In addition, the GI50 in the assay on SNB-75 was 18.8 µM (inactive); in the assay on SW-620 it was 97.3 µM (inactive); in the assay with TK-10 it was 41.2 µM (inactive); in the assay with UACC-257, 29.6 µM (inactive).
As for `CC(C)(C)C1CC[C@H]2c3c([nH]c4ccccc34)[C@H]3C(=O)N(c4ccc(F)cc4)C(=O)[C@H]3[C@H]2C1` (stereo not given in full), the GI50 was 29.9 µM (inactive) in the assay with A498; 12 µM (inactive) in the assay with A549; 14.5 µM (inactive) in the assay on COLO 205; 16.5 µM (inactive) in the assay with HOP-62; 14.1 µM (inactive) in the assay on KM12; 16.9 µM (inactive) in the assay with Malme-3M. In addition, the GI50 in the assay on OVCAR-3 was 16.7 µM (inactive); in the assay with OVCAR-8, 12.1 µM (inactive); in the assay with SF-268, 13.6 µM (inactive); in the assay with SF-539 it was 18.9 µM (inactive); in the assay on SNB-19, 15.9 µM (inactive); with SNB-75, 10.5 µM (inactive). Further, the GI50 was 17 µM (inactive) in the assay with SW-620, 16.3 µM (inactive) with TK-10 and 22.6 µM (inactive) in the assay on UACC-257.
With `O=C(O/N=C1/CCCC/C1=C\c1ccccc1)c1ccc(Cl)c(Cl)c1`, the GI50 with A549 was 17.5 µM (inactive); with COLO 205, 28.2 µM (inactive); with HL-60 it was 14.5 µM (inactive); in the assay with HOP-62, 52.5 µM (inactive); in the assay with KM12, 46.7 µM (inactive); in the assay with Malme-3M, 0.443 µM (active). Moreover, the GI50 in the assay on OVCAR-3 is 21 µM (inactive); with OVCAR-8, 17.9 µM (inactive); with RPMI-8226, 36.2 µM (inactive); in the assay on SF-268, 11.5 µM (inactive); in the assay on SF-539 it was 24.5 µM (inactive); in the assay on SNB-19, 69.7 µM (inactive). The GI50 in the assay on SNB-75 was 27.5 µM (inactive); in the assay on SR it was 8.2 µM (inactive); with SW-620, 18.7 µM (inactive); in the assay with TK-10, 23.2 µM (inactive); in the assay with UACC-257 it was > 100 µM (inactive).
Turning to `CCNC(=O)c1ccc(C)c(/N=N/N(C)C)c1`, the GI50 was > 100 µM (inactive) with A549; > 100 µM (inactive) with HOP-62; > 100 µM (inactive) in the assay with KM12; > 100 µM (inactive) in the assay with OVCAR-3; > 100 µM (inactive) in the assay on OVCAR-8; 77.1 µM (inactive) in the assay with SF-268. For the same molecule, the GI50 with SF-539, in the assay with SNB-19, in the assay on SW-620, with TK-10 and in the assay on UACC-257 was > 100 µM (inactive) throughout.
Turning to `COc1ccc(NCc2cc(OC)c(OC)c(OC)c2)cc1`, the GI50 is 0.543 µM (active) with A498; 0.578 µM (active) in the assay on A549; 0.233 µM (active) in the assay with COLO 205; 0.115 µM (active) in the assay with HL-60; 0.378 µM (active) in the assay on HOP-62; 0.13 µM (active) in the assay on KM12. In addition, the GI50 in the assay on OVCAR-3 is 0.34 µM (active); in the assay with OVCAR-8 it was 0.851 µM (active); in the assay with RPMI-8226, 0.459 µM (active); in the assay on SF-268, 1 µM (active); in the assay with SF-539 it was 0.34 µM (active); in the assay with SNB-19, 1.19 µM (inactive). Also, in the assay on SW-620, the GI50 is 0.234 µM (active).
As for `Nc1nc(N)c(-c2ccccc2)c(C(=O)Nc2ccccc2)n1`, the GI50 in the assay with A498, in the assay on A549, in the assay with COLO 205, in the assay on KM12, with Malme-3M and in the assay on OVCAR-3 was > 100 µM (inactive) each time. Moreover, the GI50 in the assay on OVCAR-8, with RPMI-8226, in the assay on SF-268, in the assay on SF-539, in the assay on SNB-19 and with SNB-75 was > 100 µM (inactive) each time. In addition, the GI50 with SW-620, in the assay on TK-10 and in the assay on UACC-257 was > 100 µM (inactive) in each case.

The values above are taken from ChEMBL document CHEMBL1201862, “PubChem BioAssay data set” (2004).
